# US20230060581A1, “METHOD OF TREATING PANCREATIC CANCER” (CEDARS-SINAI MEDICAL CENTER, priority 2020, published 2023)
# Entries after “also recorded” stand apart in the source; their conditions may differ. Read-outs that look alike come from different tables or passages of the source.
# How the values were obtained:
# [1] = test system: BRAF-mutated pancreatic cancer; assay: Response and progression-free survival on BRAF/MEK/ERK-directed therapy, retrospective clinical case series; format: in vivo, human; details: patients with fusion abnormalities, single agent trametinib
# Description: Each horizontal bar represents the time on therapy without disease progression (i.e. progression-free survival). […] Bars capped with arrows indicate lines of therapy that were continuing as of the last available progress note (censored event).
# Individual patient charts were retrospectively reviewed, and clinical information was extracted.
# Demographic, clinical descriptors, and outcomes data were collected under institution-specific IRB-approved protocols for each individual site. The data from each site was de-identified before being shared in a HIPAA-compliant database.
# Demographic data, date of diagnosis, staging information, treatment history, and response to therapy were collected from all participating sites. Overall survival (OS) was calculated from the time of the patient's diagnosis of advanced PC (i.e. the date of recurrence following surgical resection or the date of initial diagnosis in the context of metastatic or unresectable disease) until death (survival event) or last follow-up (censored event). […] Progression-free survival (PFS) was calculated from the time of initiation of a therapy until discontinuation due to disease progression (survival event), cessation due to tolerability issues (censored event), or the last follow-up (censored event).
# All survival analysis methods were implemented in an R/Bioconductor programming environment. […]
# [2] = test system: CYP3A4, CYP2C19, and CYP2D6; details: in vitro, cited from earlier work
# CYP3A4 = CYP3A4 (Homo sapiens, UniProt P08684); details: cited from earlier work
# [3] = test system: P-gp, BCRP, OATP1B1, OATP1B3, OAT1, OAT3 and OCT2; details: in vitro, cited from earlier work
# [4] = cited from earlier work; for dose absorbed: human
# CYP3A = details: concomitant administration; cited from earlier work
# P-gp and BCRP = details: in vitro; cited from earlier work
# [5] = test system: CYP1A2, CYP2B6, CYP2C8, CYP2C9, CYP3A4 and UGT1A1; details: cited from earlier work
# [6] = test system: CYP2B6, CYP2C9 and CYP3A4; details: human primary hepatocytes; cited from earlier work
# [7] = in vivo; cited from earlier work
# UGT1A1 = target: T1, UGT1A1 (Homo sapiens, UniProt P22309); details: cited from earlier work
# T1 sequence (P22309 26-533): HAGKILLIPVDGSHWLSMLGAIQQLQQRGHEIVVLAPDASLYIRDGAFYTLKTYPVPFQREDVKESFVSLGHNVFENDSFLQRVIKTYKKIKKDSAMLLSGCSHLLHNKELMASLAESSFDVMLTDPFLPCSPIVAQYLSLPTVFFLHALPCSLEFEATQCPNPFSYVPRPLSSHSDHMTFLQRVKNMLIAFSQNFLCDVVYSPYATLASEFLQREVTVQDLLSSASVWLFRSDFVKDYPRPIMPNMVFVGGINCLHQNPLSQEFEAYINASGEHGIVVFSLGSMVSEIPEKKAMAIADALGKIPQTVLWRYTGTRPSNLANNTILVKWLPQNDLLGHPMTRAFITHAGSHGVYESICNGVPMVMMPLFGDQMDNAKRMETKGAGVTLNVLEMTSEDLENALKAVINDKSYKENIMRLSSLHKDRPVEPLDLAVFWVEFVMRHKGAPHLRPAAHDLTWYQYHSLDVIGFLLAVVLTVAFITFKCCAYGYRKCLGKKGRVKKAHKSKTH
# CYP1A2 and CYP2C19 = details: metabolic pathway contribution; cited from earlier work
# [8] = humans; cited from earlier work
# [9] = target: BRAF N486_P490del (delta-NVTAP) (Homo sapiens, UniProt P15056, DEL486-490); details: experimentally, PMID: 26996308; cited from earlier work
# BRAF ΔNVTAP deletion = details: patients with ΔNVTAP deletion, clinical case reports; cited from earlier work
# Chain of CYP3A4 (P08684 whole entry): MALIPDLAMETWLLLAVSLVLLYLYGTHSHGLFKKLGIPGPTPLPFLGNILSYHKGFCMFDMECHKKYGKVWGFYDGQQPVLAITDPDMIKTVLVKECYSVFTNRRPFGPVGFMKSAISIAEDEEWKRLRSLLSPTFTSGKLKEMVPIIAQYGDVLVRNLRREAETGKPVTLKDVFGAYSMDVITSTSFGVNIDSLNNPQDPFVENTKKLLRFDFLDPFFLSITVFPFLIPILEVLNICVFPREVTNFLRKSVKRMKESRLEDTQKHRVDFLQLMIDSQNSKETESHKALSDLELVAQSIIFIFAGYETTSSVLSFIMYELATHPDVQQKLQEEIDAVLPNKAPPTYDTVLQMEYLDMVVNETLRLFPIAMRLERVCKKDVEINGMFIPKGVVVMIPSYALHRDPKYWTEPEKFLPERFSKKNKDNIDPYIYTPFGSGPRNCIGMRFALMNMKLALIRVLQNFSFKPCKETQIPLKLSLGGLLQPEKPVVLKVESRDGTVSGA
# Chain of BRAF N486_P490del (delta-NVTAP) (P15056 with tags, fused parts or gaps DEL486-490): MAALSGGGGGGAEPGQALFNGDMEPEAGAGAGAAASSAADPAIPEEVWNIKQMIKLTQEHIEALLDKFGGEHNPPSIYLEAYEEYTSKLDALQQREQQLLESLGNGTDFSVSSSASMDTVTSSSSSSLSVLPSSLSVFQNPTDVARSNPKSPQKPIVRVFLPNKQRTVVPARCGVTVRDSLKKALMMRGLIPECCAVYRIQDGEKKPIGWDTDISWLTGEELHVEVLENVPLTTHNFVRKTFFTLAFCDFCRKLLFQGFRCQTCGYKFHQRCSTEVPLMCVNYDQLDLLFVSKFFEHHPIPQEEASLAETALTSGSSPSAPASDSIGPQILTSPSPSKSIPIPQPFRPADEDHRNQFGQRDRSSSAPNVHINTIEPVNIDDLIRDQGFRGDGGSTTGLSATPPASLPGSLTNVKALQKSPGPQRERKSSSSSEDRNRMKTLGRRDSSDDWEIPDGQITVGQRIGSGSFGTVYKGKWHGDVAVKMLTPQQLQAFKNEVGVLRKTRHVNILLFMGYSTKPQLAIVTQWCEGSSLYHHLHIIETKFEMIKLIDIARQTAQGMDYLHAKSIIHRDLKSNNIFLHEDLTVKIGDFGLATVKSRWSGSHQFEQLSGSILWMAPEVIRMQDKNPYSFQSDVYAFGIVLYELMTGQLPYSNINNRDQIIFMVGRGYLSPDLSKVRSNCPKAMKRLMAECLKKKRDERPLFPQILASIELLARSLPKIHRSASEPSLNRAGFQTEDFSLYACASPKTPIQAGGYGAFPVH
smiles,measurement,setting,value
CC(=O)Nc1cccc(-n2c(=O)n(C3CC3)c(=O)c3c(Nc4ccc(I)cc4F)n(C)c(=O)c(C)c32)c1 [trametinib],patients having disease control,[1],4/6
COC(=O)N[C@@H](C)CNc1nccc(-c2cn(C(C)C)nc2-c2cc(Cl)cc(NS(C)(=O)=O)c2F)n1 [Encorafenib],metabolising enzymes and pathway,[2],"metabolized by CYP3A4 and to a lesser extent by CYP2C19; also recorded: N-dealkylation is the primary metabolic pathway; CYP3A4 (primary), CYP2C19, and CYP2D6 (minor) contribute to total oxidative clearance in human liver microsomes"
same,metabolising enzymes and pathway,[2]; listed as encorafenib,mainly metabolized by CYP3A
same,time-dependent enzyme inhibition,CYP3A4,time-dependent inhibitor of CYP3A4
same,transporter inhibition,[3],"potent inhibitor of the renal transporters, OAT1, OAT3 and OCT2, and the hepatic transporters OATP1B1 and OATP1B3"
same,transporter inhibition,[3]; listed as encorafenib,"can potentially inhibit the transporters P-gp, BCRP, OATP1B1, OATP1B3, OAT1, OAT3 and OCT2 at clinical concentrations"
same,dose absorbed,[4],At least 86%
same,"excretion, feces",[4]; in vivo,39%
same,"excretion, urine",[4]; in vivo,47.2%
same,effect of strong or moderate CYP3A inhibitors on exposure,CYP3A,may increase encorafenib plasma concentration
same,transporter substrate,P-gp and BCRP,substrate of the transporter P-gp
same,reversible enzyme inhibition,[5],"reversible inhibitor of CYP1A2, CYP2B6, CYP2C8, CYP2C9, CYP3A4 and UGT1A1"
same,enzyme induction,[6],"induced CYP2B6, CYP2C9 and CYP3A4"
Cn1cnc2c(F)c(Nc3ccc(Br)cc3F)c(C(=O)NOCCO)cc21 [Binimetinib],dose absorbed,[4],approximately 50%
same,accumulation,[4]; in vivo,approximately 1.5 fold
same,estimated renal clearance of unchanged drug,[4]; in vivo,6.3 % of total dose
same,excretion of unchanged drug in feces,[4]; in vivo,31.7%
same,excretion of unchanged drug in urine,[4]; in vivo,18.4%
same,time to steady state concentrations,[4]; in vivo,≤ 15 days
same,"known potential toxicities, Very Common (≥10%)",[7],"diarrhea, nausea, vomiting, fatigue, peripheral edema, increased AST, increased blood creatine phosphokinase, dermatitis acneiform, dry skin, pruritus, rash, decreased ejection fraction"
same,primary route of metabolism,UGT1A1; in vitro,primarily metabolized by glucuronidation through UGT1A1
same,glucuronidation via UGT1A1,UGT1A1; metabolic pathway contribution,up to 61.2%
same,N-dealkylation via CYP1A2 and CYP2C19,CYP1A2 and CYP2C19,up to 17.8%
same,transporter substrate,P-gp and BCRP,substrate of P-gp and BCRP; also recorded: substrate for P-gp and BCRP
same,blood-to-plasma concentration ratio,[8],0.718
same,bound to plasma proteins,[8],97.2%
CC(C)(C)c1nc(-c2cccc(NS(=O)(=O)c3c(F)cccc3F)c2F)c(-c2ccnc(N)n2)s1 [dabrafenib],Implications for BRAF Inhibitors: dabrafenib sensitivity,[9],sensitive;
same,clinical activity,BRAF ΔNVTAP deletion,significant activity
